According to ChEMBL document CHEMBL3217432, “Oxazole phosphonic acids as fructose 1,6-bisphosphatase inhibitors with potent glucose-lowering activity” (Medchemcomm, 2011):

Legend:
[1] = target: T1, Fructose-1,6-bisphosphatase 1 (Homo sapiens, UniProt P09467); test: Inhibition of human liver FBPase
T1 sequence (P09467 whole entry): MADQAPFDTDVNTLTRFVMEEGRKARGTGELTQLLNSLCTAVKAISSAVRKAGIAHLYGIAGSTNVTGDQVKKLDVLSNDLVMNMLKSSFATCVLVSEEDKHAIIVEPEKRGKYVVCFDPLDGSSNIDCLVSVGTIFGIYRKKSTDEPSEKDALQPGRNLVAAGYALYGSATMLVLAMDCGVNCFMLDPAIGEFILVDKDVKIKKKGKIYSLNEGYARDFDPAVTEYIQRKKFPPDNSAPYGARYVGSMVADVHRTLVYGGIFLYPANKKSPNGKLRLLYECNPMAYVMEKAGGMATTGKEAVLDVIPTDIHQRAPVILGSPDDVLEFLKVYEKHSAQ

[2] = target: T2, Fructose-1,6-bisphosphatase 1 (Rattus norvegicus, UniProt P19112); test: Inhibition of rat liver FBPase
T2 sequence (P19112 whole entry): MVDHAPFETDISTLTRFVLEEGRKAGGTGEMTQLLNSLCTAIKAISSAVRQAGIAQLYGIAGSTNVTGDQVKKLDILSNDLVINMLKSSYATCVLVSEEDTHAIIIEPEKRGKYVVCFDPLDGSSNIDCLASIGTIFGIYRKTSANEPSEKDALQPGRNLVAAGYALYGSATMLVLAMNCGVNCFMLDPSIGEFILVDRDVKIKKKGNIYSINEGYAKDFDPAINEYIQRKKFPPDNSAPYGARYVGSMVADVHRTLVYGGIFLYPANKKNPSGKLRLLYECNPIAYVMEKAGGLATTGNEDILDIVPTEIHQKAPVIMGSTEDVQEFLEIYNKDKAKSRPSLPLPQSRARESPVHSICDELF

Rattus norvegicus = test: Antidiabetic activity in rat assessed as reduction of blood glucose level at 10 mg/kg, iv relative to control; format: functional; design: scale not given: the % may be the effect or the level left

SMILES | IC50 [1] | IC50 [2] | Activity (Rattus norvegicus)
CCCCc1oc(N)nc1-c1ccc(P(=O)(O)O)o1 | 0.17 µM | 2.3 µM | 10%
CC(C)OC(=O)c1oc(N)nc1-c1ccc(P(=O)(O)O)o1 | 0.04 µM |  | 7%
CCCCCc1oc(N)nc1-c1ccc(P(=O)(O)O)o1 | 0.21 µM | 2.7 µM | 7%
CCc1oc(N)nc1C(=O)OCP(=O)(O)O | 0.38 µM |  | 
CCOC(=O)c1oc(N)nc1-c1ccc(P(=O)(O)O)o1 |  |  | 18%
Cc1oc(N)nc1C(=O)OCP(=O)(O)O | 0.42 µM |  | 
CCNc1nc(-c2ccc(P(=O)(O)O)o2)c(CC(C)C)o1 | 10 µM |  | 
CC(C)(C)C(=O)c1oc(N)nc1-c1ccc(P(=O)(O)O)o1 | 0.855 µM |  | 
Nc1nc(-c2ccc(P(=O)(O)O)o2)c(Cc2ccccc2)o1 | 0.9 µM | 10 µM | 
Nc1nc(C(=O)OCP(=O)(O)O)co1 | 7 µM |  | 
CC(C)Cc1oc(O)nc1-c1ccc(P(=O)(O)O)o1 | 10 µM |  | 
CNC(=O)c1oc(N)nc1-c1ccc(P(=O)(O)O)o1 | 1 µM |  | 0%
Nc1nc(-c2ccc(P(=O)(O)O)o2)co1 | 10 µM |  | 
CC(C)Sc1oc(N)nc1-c1ccc(P(=O)(O)O)o1 | 0.11 µM | 0.9 µM | 61%
CCCCc1oc(N)nc1C(=O)OCP(=O)(O)O | 0.25 µM | 1.7 µM | 22%
C=Cc1nc(-c2ccc(P(=O)(O)O)o2)c(CC(C)C)o1 | 6.7 µM |  | 
CCCCCc1oc(N)nc1C(=O)OCP(=O)(O)O | 0.35 µM |  | 
Nc1nc(-c2ccc(P(=O)(O)O)o2)c(C(=O)OCc2ccccc2)o1 | 0.085 µM | 2.25 µM | 0%
COC(=O)c1oc(N)nc1-c1ccc(P(=O)(O)O)o1 | 0.067 µM | 3.9 µM | 0%

SMILES | IC50 [1] | IC50 [2] | Activity (Rattus norvegicus)
CCCSc1oc(N)nc1-c1ccc(P(=O)(O)O)o1 |  |  | 61%
CNc1nc(-c2ccc(P(=O)(O)O)o2)c(CC(C)C)o1 | 4.3 µM |  | 
Nc1nc(-c2ccc(P(=O)(O)O)o2)c(Sc2ccccc2)o1 | 4 µM |  | 
O=C(OCP(=O)(O)O)c1ncoc1-c1ccccc1 | 10 µM |  | 
C=CCc1oc(N)nc1-c1ccc(P(=O)(O)O)o1 | 0.14 µM | 3 µM | 19%
CCCc1oc(N)nc1C(=O)OCP(=O)(O)O | 0.28 µM |  | 
CCc1nc(-c2ccc(P(=O)(O)O)o2)c(CC(C)C)o1 | 0.95 µM |  | 
Cc1nc(C(=O)OCP(=O)(O)O)c(C(F)(F)F)o1 | 10 µM |  | 
Nc1nc(-c2ccc(P(=O)(O)O)o2)c(-c2ccccc2)o1 | 0.16 µM | 2.5 µM | 8%
CC(C)Cc1oc(N)nc1-c1ccc(P(=O)(O)O)o1 |  |  | 51%
Nc1nc(-c2ccc(P(=O)(O)O)o2)c(CC2CCCCC2)o1 | 0.32 µM | 5.5 µM | 
CC(C)Cc1ocnc1-c1ccc(P(=O)(O)O)o1 | 1.9 µM |  | 
CC(C)(C)Sc1oc(N)nc1-c1ccc(P(=O)(O)O)o1 | 0.12 µM | 1.7 µM | 
CC(C)c1oc(N)nc1C(=O)OCP(=O)(O)O | 0.58 µM |  | 
CC(C)Cc1oc(C(C)C)nc1-c1ccc(P(=O)(O)O)o1 | 2.2 µM |  | 
Nc1nc(-c2ccc(P(=O)(O)O)o2)c(Cc2cccs2)o1 | 0.26 µM | 3.75 µM | 
CC(C)Cc1oc(N(C)C)nc1-c1ccc(P(=O)(O)O)o1 | 2.1 µM |  | 
CCSC(=O)c1oc(N)nc1-c1ccc(P(=O)(O)O)o1 | 0.03 µM | 2.3 µM | 51%
